The results in this text go back to ChEMBL document CHEMBL1255180, “Thieno[3,2-c]pyrazoles: a novel class of Aurora inhibitors with favorable antitumor activity” (Bioorg Med Chem, 2010).

What all share (format): ADME, organism-based
Holding throughout (parameters): dose 10 mg/kg, route intravenous

Data set [1] is described as follows: Volume of distribution in CD1 mouse at 10 mg/kg, iv bid. The conditions noted are these: in vivo.
Data set [2] is described as follows: Cmax in CD1 mouse at 10 mg/kg, iv bid. The conditions noted are these: in vivo.
The nature of data set [3]: Half life in CD1 mouse at 10 mg/kg, iv bid. The conditions noted are these: in vivo.
A short description of data set [4]: Clearance in CD1 mouse at 10 mg/kg, iv bid. The conditions noted are these: in vivo.
Data set [5] is described as follows: AUC in CD1 mouse at 10 mg/kg, iv bid. The conditions noted are these: plasma.

Consider `O=C(Nc1n[nH]c2cc(C(=O)N[C@H](CN3CCCC3)c3ccccc3)sc12)c1ccc(N2CCOCC2)cc1`, for which, in data set [1], the Vd (in general, the apparent volume that relates the amount in the body to the concentration in plasma or blood) is 16 L/kg. Also, in data set [2], the peak concentration (Cmax) (as a rule, the maximum level reached in the sampled fluid or tissue) is 9 µM. For the same molecule, the half-life (as a rule, the time needed for the level to fall by half in the phase considered) in data set [3] was 7 h. The clearance (usually a measure of how efficiently the substance is removed, as volume per time) in data set [4] was 50 mL/min/kg. Moreover, the exposure (AUC) – broadly, concentration integrated over time – in data set [5] is 9 µM·h.
